# Laboratory results published in patent publication US9409884B2 (Rigel Pharmaceuticals, Inc., priority 2012, dated 2016).
# Biological target: AMPK
# Test: AMPK activation, enzyme-linked immunosorbent assay
# Type: biochemical
# Details: Table 12, compounds of Table 5
# In short: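 AMPK activation by test compounds was measured by enzyme-linked immunosorbent assay.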
row,Structure (SMILES),EC50
1,"O=C(NC1CCN(Cc2ccccc2)CC1)c1ccc(OC2CCN(Cc3ccc(OC(F)(F)F)cc3)CC2)cc1 [Compound 5-63, N-(1-benzylpiperidin-4-yl)-4-(1-(4-(trifluoromethoxy)benzyl)piperidin-4-yloxy)benzamide]",< 1000 nM
2,"O=C(NC1CCN(Cc2ccccc2)CC1)c1ccc(OC2CCN(Cc3ccc(Cl)cc3)CC2)c(F)c1 [Compound 5-64, N-(1-benzylpiperidin-4-yl)-4-(1-(4-chlorobenzyl)piperidin-4-yloxy)-3-fluorobenzamide]",< 1000 nM
3,"O=C(NC1CCN(Cc2ccccc2)CC1)c1ccc(OC2CCN(Cc3ccc(Cl)cc3)CC2)c(Cl)c1 [Compound 5-65, N-(1-benzylpiperidin-4-yl)-3-chloro-4-(1-(4-chlorobenzyl)piperidin-4-yloxy)benzamide]",< 1000 nM
4,"O=C(NC1CCN(Cc2ccc(F)cc2)CC1)c1ccc(OC2CCN(Cc3ccc(Cl)cc3)CC2)c(Cl)c1 [Compound 5-66, 3-chloro-4-(1-(4-chlorobenzyl)piperidin-4-yloxy)-N-(1-(4-fluorobenzyl)piperidin-4-yl)benzamide]",< 1000 nM
5,"N#Cc1ccc(CN2CCC(Oc3ccc(C(=O)NC4CCN(Cc5ccccc5)CC4)cc3Cl)CC2)cc1 [Compound 5-67, N-(1-benzylpiperidin-4-yl)-3-chloro-4-(1-(4-cyanobenzyl)piperidin-4-yloxy)benzamide]",< 1000 nM
6,"Cc1ccc(CN2CCC(Oc3ccc(C(=O)NC4CCN(Cc5ccc(F)cc5)CC4)cc3Cl)CC2)cc1 [Compound 5-68, 3-chloro-N-(1-(4-fluorobenzyl)piperidin-4-yl)-4-(1-(4-methylbenzyl)piperidin-4-yloxy)benzamide]",< 1000 nM
7,"O=C(NC1CCN(Cc2ccccc2)CC1)c1ccc(OC2CCN(Cc3ccc(F)c(F)c3)CC2)c(F)c1 [Compound 5-69, N-(1-benzylpiperidin-4-yl)-4-(1-(3,4-difluorobenzyl)piperidin-4-yloxy)-3-fluorobenzamide]",< 1000 nM
8,"N#Cc1ccc(CN2CCC(Oc3ccc(C(=O)NC4CCN(Cc5ccc(Cl)cc5)CC4)cc3F)CC2)cc1 [Compound 5-70, N-(1-(4-chlorobenzyl)piperidin-4-yl)-4-(1-(4-cyanobenzyl)piperidin-4-yloxy)-3-fluorobenzamide]",< 1000 nM
9,"O=C(NC1CCN(Cc2ccc(Cl)cc2)CC1)c1ccc(OC2CCN(Cc3ccc(F)c(F)c3)CC2)c(F)c1 [Compound 5-71, N-(1-(4-chlorobenzyl)piperidin-4-yl)-4-(1-(3,4-difluorobenzyl)piperidin-4-yloxy)-3-fluorobenzamide]",< 1000 nM
10,"O=C(NC1CCN(Cc2ccc(Cl)cc2)CC1)c1ccc(OC2CCN(Cc3ccc(Cl)cc3)CC2)c(F)c1 [Compound 5-72, N-(1-(4-chlorobenzyl)piperidin-4-yl)-4-(1-(4-chlorobenzyl)piperidin-4-yloxy)-3-fluorobenzamide]",< 1000 nM
11,"Cc1ccc(CN2CCC(Oc3ccc(C(=O)NC4CCN(Cc5ccc(Cl)cc5)CC4)cc3F)CC2)cc1 [Compound 5-73, N-(1-(4-chlorobenzyl)piperidin-4-yl)-3-fluoro-4-(1-(4-methylbenzyl)piperidin-4-yloxy)benzamide]",< 1000 nM
12,"O=C(NC1CCN(Cc2ccccc2)CC1)c1ccc(OC2CCN(Cc3ccc(F)c(F)c3)CC2)c(Cl)c1 [Compound 5-74, N-(1-benzylpiperidin-4-yl)-3-chloro-4-(1-(3,4-difluorobenzyl)piperidin-4-yloxy)benzamide]",< 1000 nM
13,"O=C(NC1CCN(Cc2ccccc2)CC1)c1cc(Cl)c(OC2CCN(Cc3ccc(Cl)cc3)CC2)c(Cl)c1 [Compound 5-75, N-(1-benzylpiperidin-4-yl)-3,5-dichloro-4-(1-(4-chlorobenzyl)piperidin-4-yloxy)benzamide]",< 1000 nM
14,"O=C(NC1CCN(Cc2ccccc2)CC1)c1cc(Cl)c(OC2CCN(Cc3ccc(F)c(F)c3)CC2)c(Cl)c1 [Compound 5-76, N-(1-benzylpiperidin-4-yl)-3,5-dichloro-4-(1-(3,4-difluorobenzyl)piperidin-4-yloxy)benzamide]",< 1000 nM
15,"N#Cc1ccc(CN2CCC(Oc3c(Cl)cc(C(=O)NC4CCN(Cc5ccccc5)CC4)cc3Cl)CC2)cc1 [Compound 5-77, N-(1-benzylpiperidin-4-yl)-3,5-dichloro-4-(1-(4-cyanobenzyl)piperidin-4-yloxy)benzamide]",< 1000 nM
16,"CC(C)(C)OC(=O)N1CCC(NC(=O)c2ccc(OC3CCN(Cc4ccc(C#N)cc4)CC3)cc2)CC1 [Compound 5-78, tert-butyl 4-(4-(1-(4-cyanobenzyl)piperidin-4-yloxy)benzamido)piperidine-1-carboxylate]",< 1000 nM
17,"N#Cc1ccc(CN2CCC(Oc3ccc(C(=O)NC4CCNCC4)cc3)CC2)cc1 [Compound 5-79, 4-(1-(4-cyanobenzyl)piperidin-4-yloxy)-N-(piperidin-4-yl)benzamide]",> 100000 nM
18,"O=C(NC1CCN(Cc2ccc(Cl)cc2)CC1)c1ccc(OC2CCN(Cc3ccc(Cl)c(Cl)c3)CC2)c(F)c1 [Compound 5-80, N-(1-(4-chlorobenzyl)piperidin-4-yl)-4-(1-(3,4-dichlorobenzyl)piperidin-4-yloxy)-3-fluorobenzamide]",< 1000 nM
19,"N#Cc1ccc(N2CCC(Oc3ccc(C(=O)NC4CCN(Cc5ccc(Cl)cc5)CC4)cc3F)CC2)cc1 [Compound 5-81, N-(1-(4-chlorobenzyl)piperidin-4-yl)-4-(1-(4-cyanophenyl)piperidin-4-yloxy)-3-fluorobenzamide]",< 1000 nM

# Now from value to molecule:
row,EC50,Structure (SMILES)
1,< 1000 nM,"O=C(NC1CCN(Cc2ccccc2)CC1)c1ccc(OC2CCN(Cc3ccc(Cl)c(Cl)c3)CC2)c(F)c1 [Compound 5-82, N-(1-benzylpiperidin-4-yl)-4-(1-(3,4-dichlorobenzyl)piperidin-4-yloxy)-3-fluorobenzamide]"
2,< 1000 nM,"N#Cc1ccc(CN2CCC(Oc3ccc(C(=O)NC4CCN(Cc5ccncc5)CC4)cc3)CC2)cc1 [Compound 5-83, 4-(1-(4-cyanobenzyl)piperidin-4-yloxy)-N-(1-(pyridin-4-ylmethyl)piperidin-4-yl)benzamide]"
3,< 1000 nM,"O=C(NC1CCN(Cc2ccccc2)CC1)c1ccc(OC2CCN(Cc3ccc(Cl)c(Cl)c3)CC2)c(Cl)c1 [Compound 5-84, N-(1-benzylpiperidin-4-yl)-3-chloro-4-(1-(3,4-dichlorobenzyl)piperidin-4-yloxy)benzamide]"
4,< 1000 nM,"N#Cc1ccc(CN2CCC(Oc3ccc(C(=O)NC4CCN(Cc5ccccn5)CC4)cc3)CC2)cc1 [Compound 5-85, 4-(1-(4-cyanobenzyl)piperidin-4-yloxy)-N-(1-(pyridin-2-ylmethyl)piperidin-4-yl)benzamide]"
5,< 1000 nM,"O=C(NC1CCN(Cc2ccccc2)CC1)c1cccc(OC2CCN(c3ccccn3)CC2)c1 [Compound 5-86, N-(1-benzylpiperidin-4-yl)-3-(1-(pyridin-2-yl)piperidin-4-yloxy)benzamide]"
6,< 1000 nM,"O=C(NC1CCN(Cc2ccncc2)CC1)c1cccc(OC2CCN(c3ccc(C(F)(F)F)cc3)CC2)c1 [Compound 5-87, N-(1-(pyridin-4-ylmethyl)piperidin-4-yl)-3-(1-(4-(trifluoromethyl)phenyl)piperidin-4-yloxy)benzamide]"
7,1000 to 10000 nM,"N#Cc1ccc(N2CCC(Oc3cccc(C(=O)NC4CCN(Cc5ccncc5)CC4)c3)CC2)cc1 [Compound 5-88, N-(1-(pyridin-4-ylmethyl)piperidin-4-yl)-3-(1-(4-cyanophenyl)piperidin-4-yloxy)benzamide]"
8,1000 to 10000 nM,"N#Cc1cccc(CN2CCC(Oc3cccc(C(=O)NC4CCN(Cc5ccccc5)CC4)c3)CC2)c1 [Compound 5-89, N-(1-benzylpiperidin-4-yl)-3-(1-(3-cyanobenzyl)piperidin-4-yloxy)benzamide]"
9,1000 to 10000 nM,"CC(C)(C)OC(=O)N1CCC(Oc2ccc(C(=O)NC3CCN(Cc4ccccc4)CC3)cc2Cl)CC1 [Compound 5-90, tert-butyl 4-(4-(1-benzylpiperidin-4-ylcarbamoyl)-2-chlorophenoxy) piperidine-1-carboxylate]"
10,< 1000 nM,"CC(C)(C)C(=O)N1CCC(Oc2ccc(C(=O)NC3CCN(Cc4ccccc4)CC3)cc2Cl)CC1 [Compound 5-91, N-(1-benzylpiperidin-4-yl)-3-chloro-4-(1-pivaloylpiperidin-4-yloxy)benzamide]"
11,1000 to 10000 nM,"CC(C)(C)OC(=O)N1CCC(Oc2ccc(C(=O)NC3CCN(Cc4ccccc4)CC3)cc2F)CC1 [Compound 5-92, tert-butyl 4-(4-(1-benzylpiperidin-4-ylcarbamoyl)-2-fluorophenoxy) piperidine-1-carboxylate]"
12,> 100000 nM,"O=C(NC1CCN(Cc2ccccc2)CC1)c1ccc(OC2CCNCC2)c(Cl)c1 [Compound 5-93, N-(1-benzylpiperidin-4-yl)-3-chloro-4-(piperidin-4-yloxy)benzamide]"
13,< 1000 nM,"COc1cc(C(=O)NCCCNC(=O)OC(C)(C)C)ccc1OC1CCN(Cc2ccc(C(F)(F)F)cc2)CC1 [Compound 5-94, tert-butyl 3-(3-methoxy-4-(1-(4-(trifluoromethyl)benzyl)piperidin-4-yloxy)benzamido) propylcarbamate]"
14,< 1000 nM,"CC(C)(C)OC(=O)NCCCNC(=O)c1ccc(OC2CCN(Cc3ccc(C(F)(F)F)cc3)CC2)cc1 [Compound 5-95, tert-butyl 3-(4-(1-(4-(trifluoromethyl)benzyl)piperidin-4-yloxy)benzamido) propylcarbamate]"
15,1000 to 10000 nM,"COc1ccc(CN2CCC(Oc3ccc(C(=O)N4CCN(C(=O)OC(C)(C)C)CC4)cc3)CC2)cc1 [Compound 5-96, tert-butyl 4-(4-(1-(4-methoxybenzyl)piperidin-4-yloxy)benzoyl)piperazine-1-carboxylate]"
16,1000 to 10000 nM,"COc1ccc(CN2CCC(Oc3ccc(C(=O)NCCCNC(=O)OC(C)(C)C)cc3Cl)CC2)cc1 [Compound 5-97, tert-butyl 3-(3-chloro-4-(1-(4-methoxybenzyl)piperidin-4-yloxy)benzamido) propylcarbamate]"
17,1000 to 10000 nM,"COc1cc(C(=O)NCCCN2CCOCC2)ccc1OC1CCN(Cc2ccc(Cl)cc2)CC1 [Compound 5-98, 4-(1-(4-chlorobenzyl)piperidin-4-yloxy)-4-methoxy-N-(3-morpholinopropyl)benzamide]"
18,1000 to 10000 nM,"CC(C)(C)OC(=O)N1CCN(C(=O)c2ccc(OC3CCN(Cc4ccccc4)CC3)cc2)CC1 [Compound 5-99, tert-butyl 4-(4-(1-benzylpiperidin-4-yloxy)benzoyl)piperazine-1-carboxylate]"
